SMILES strings stand for the structures.

In assay [1] the test system is L6-myotubes. As to the kind of experiment: Glucose uptake (3H-2-deoxyglucose) in differentiated L6-myotubes. The format is cell-based. Conditions: compound at 10 µM (1×10^−5 M) vs isoproterenol at 10 µM, read-out: Biological example 1: glucose uptake, activity compared to that of isoproterenol. The procedure: L6-myoblasts were grown in Dulbecco's Modified Eagle's Medium (DMEM) containing 1 g/L glucose supplemented with 10% fetal bovine serum, 2 mM L-Glutamine, 50 U/ml penicillin, 50 μg/mL streptomycin and 10 mM HEPES. Cells were plated at 1×10^5 cells per mL in 24-well plates. After reaching 90% confluence the cells were grown in medium containing 2% FBS for 7 days where upon cells differentiated into myotubes. Differentiated L6-myotubes were serum-starved overnight in medium containing 0.5% fatty-acid free BSA and stimulated with an agonist, with a final concentration of 1×10^−5 M. After 1 h 40 min the cells were washed with warm glucose free medium or PBS twice and another portion of agonist was added to the glucose free medium. After 20 min the cells were exposed to 50 nM ^3H-2-deoxyglucose for another 10 min before washed in ice cold glucose free medium or PBS three times and lysed in 400 μL/well 0.2 M NaOH for 1 h at 60° C. The cell lysate was mixed with 4 mL scintillation buffer (Emulsifier Safe, Perkin Elmer) and the radioactivity was detected in a β-counter (Tri-Carb 4810TR, Perkin Elmer). The activity for each compound is compared to that of isoproterenol.

Assay [2] relates to L6-myotubes. Description: Measurement of intracellular cAMP levels in differentiated L6 cells. The format is cell-based. Conditions: Rattus norvegicus, L6, 0.25 h, compound at 10 µM (1×10^−5 M), 15 min, vs isoproterenol at 10 µM, read-out: Biological example 2: intracellular cAMP levels, activity compared to that of isoproterenol. The procedure: L6-myoblasts were grown in Dulbecco's Modified Eagle's Medium (DMEM) containing 1 g/L glucose supplemented with 10% fetal bovine serum, 2 mM L-Glutamine, 50 U/ml penicillin, 50 μg/mL streptomycin and 10 mM HEPES. Cells were plated at 1×10^5 cells per mL in 24-well plates. After reaching 90% confluence the cells were grown in medium containing 2% FBS for 7 days where upon cells differentiated into myotubes. Differentiated cells were serum-starved overnight and stimulated with an agonist, final concentration 1×10^−5 M, for 15 min in stimulation buffer (HBSS supplemented with 1% BSA, 5 mM HEPES and 1 mM IBMX, pH 7.4). The medium was aspirated and 100 μL of 95% EtOH was added to each well of the 24-well plate and cells were kept at −20° C. overnight. The EtOH was allowed to evaporate and 500 μL of lysis buffer (1% BSA, 5 mM HEPES and 0.3% Tween-20, pH 7.4) was added to each well. The plate was kept at −80° C. for 30 min and then at −20° C. until the day of detection when the samples were thawed. Intracellular cAMP levels were detected using an alpha screen CAMP kit (6760635D from Perkin Elmer). The activity for each compound is compared to that of isoproterenol.
On the technique in general: cAMP levels reflect the balance of adenylyl cyclase and phosphodiesterase activity.

In the case of `O[C@H](c1cccc(F)c1)C12CCC(COCc3ccc(Cl)cc3)(CC1)N2` [Example 1, (R)-(4-(((4-Chlorobenzyl)oxy)methyl)-7-azabicyclo[2.2.1]heptan-1-yl)(3-fluorophenyl)methanol], the Emax at 10 µM in the assay with L6-myotubes [1] was more than 75%; in the assay on L6-myotubes [2], less than 25%.

In the case of `O[C@@H](c1cccc(F)c1)C12CCC(COCc3ccc(Cl)cc3)(CC1)N2` [Example 2, (S)-(4-(((4-Chlorobenzyl)oxy)methyl)-7-azabicyclo[2.2.1]heptan-1-yl)(3-fluorophenyl)methanol], the figures for the Emax at 10 µM in the assay with L6-myotubes [1] and with L6-myotubes [2] were 50 to 75% and less than 25%, respectively.

Turning to `O[C@H](c1cccc(F)c1)C12CCC(COCc3ccc(F)cc3)(CC1)N2` [Example 3, (R)-(4-(((4-Fluorobenzyl)oxy)methyl)-7-azabicyclo[2.2.1]heptan-1-yl)(3-fluorophenyl)methanol], the figures for the Emax at 10 µM with L6-myotubes [1] and in the assay with L6-myotubes [2] were more than 75% and 25 to 50%, respectively.

As to `O[C@@H](c1cccc(F)c1)C12CCC(COCc3ccc(F)cc3)(CC1)N2` [Example 4, (S)-(4-(((4-Fluorobenzyl)oxy)methyl)-7-azabicyclo[2.2.1]heptan-1-yl)(3-fluorophenyl)methanol], the values for the Emax at 10 µM with L6-myotubes [1] and with L6-myotubes [2] were 25 to 50% and less than 25%, respectively.

Consider `O[C@H](c1cncc(F)c1)C12CCC(COCc3ccc(F)cc3)(CC1)N2` [Example 5, (R)-(4-(((4-Fluorobenzyl)oxy)methyl)-7-azabicyclo[2.2.1]heptan-1-yl)(5-fluoropyridin-3-yl)methanol], for which the Emax at 10 µM in the assay with L6-myotubes [1] is more than 75%; in the assay with L6-myotubes [2], 25 to 50%.

As for `O[C@@H](c1cncc(F)c1)C12CCC(COCc3ccc(F)cc3)(CC1)N2` [Example 6, (S)-(4-(((4-Fluorobenzyl)oxy)methyl)-7-azabicyclo[2.2.1]heptan-1-yl)(5-fluoropyridin-3-yl)methanol], the Emax at 10 µM with L6-myotubes [1] was 50 to 75%; with L6-myotubes [2] it was less than 25%.

On to `O[C@H](c1cccc(F)c1)C12CCC(Cc3ccccc3)(CC1)N2` [Example 7, (R)-(4-Benzyl-7-azabicyclo[2.2.1]heptan-1-yl)(3-fluorophenyl)methanol], for which the Emax at 10 µM in the assay on L6-myotubes [1] was more than 75%; in the assay on L6-myotubes [2], 25 to 50%.

Consider `O[C@@H](c1cccc(F)c1)C12CCC(Cc3ccccc3)(CC1)N2` [Example 8, (S)-(4-Benzyl-7-azabicyclo[2.2.1]heptan-1-yl)(3-fluorophenyl)methanol], for which the Emax at 10 µM was 50 to 75% with L6-myotubes [1] and less than 25% in the assay with L6-myotubes [2].

Regarding `COc1ccc(CC23CCC([C@H](O)c4cccc(F)c4)(CC2)N3)cc1` [Example 9, (R)-(3-Fluorophenyl)(4-(4-methoxybenzyl)-7-azabicyclo[2.2.1]heptan-1-yl)methanol], the results for the Emax at 10 µM in the assay with L6-myotubes [1] and with L6-myotubes [2] were more than 75% and less than 25%, respectively.

Consider `COc1ccc(CC23CCC([C@@H](O)c4cccc(F)c4)(CC2)N3)cc1` [Example 10, (S)-(3-Fluorophenyl)(4-(4-methoxybenzyl)-7-azabicyclo[2.2.1]heptan-1-yl)methanol], for which the Emax at 10 µM in the assay with L6-myotubes [1] was 50 to 75%; in the assay with L6-myotubes [2] it was less than 25%.

For `O[C@H](c1cccc(F)c1)C12CCC(Cc3ccc(F)cc3)(CC1)N2` [Example 11, (R)-(4-(4-Fluorobenzyl)-7-azabicyclo[2.2.1]heptan-1-yl)-(3-fluoro-phenyl)methanol], the Emax at 10 µM in the assay with L6-myotubes [1] is more than 75%; in the assay on L6-myotubes [2], less than 25%.

Take `O[C@@H](c1cccc(F)c1)C12CCC(Cc3ccc(F)cc3)(CC1)N2` [Example 12, (S)-(4-(4-Fluorobenzyl)-7-azabicyclo[2.2.1]heptan-1-yl)-(3-fluorophenyl)methanol]: the Emax at 10 µM was 50 to 75% with L6-myotubes [1] and less than 25% in the assay with L6-myotubes [2].

`CO[C@H]1CC[C@H](CCC23CCC([C@H](O)c4cccc(F)c4)(CC2)N3)CC1` [Example 13, (R)-(3-Fluorophenyl)(4-(2-(trans-4-methoxycyclohexyl)ethyl)-7-azabicyclo[2.2.1]heptan-1-yl)methanol]: the Emax at 10 µM is more than 75% with L6-myotubes [1] and 50 to 75% in the assay with L6-myotubes [2].

On to `CO[C@H]1CC[C@H](CCC23CCC([C@@H](O)c4cccc(F)c4)(CC2)N3)CC1` [Example 14, (S)-(3-Fluorophenyl)(4-(2-((trans)-4-methoxycyclohexyl)ethyl)-7-aza-bicyclo[2.2.1]heptan-1-yl)methanol], for which the Emax at 10 µM with L6-myotubes [1] was 50 to 75%; in the assay on L6-myotubes [2] it was less than 25%.

Regarding `O[C@H](c1cccc(F)c1)C12CCC(COCc3ccc(OC(F)(F)F)cc3)(CC1)N2` [Example 15, (R)-(3-Fluorophenyl)(4-(((4-(trifluoromethoxy)benzyl)oxy)methyl)-7-azabicyclo[2.2.1]heptan-1-yl)methanol], the Emax at 10 µM with L6-myotubes [1] and in the assay with L6-myotubes [2] was less than 25% in each case.

Take `O[C@@H](c1cccc(F)c1)C12CCC(COCc3ccc(OC(F)(F)F)cc3)(CC1)N2` [Example 16]: the Emax at 10 µM in the assay on L6-myotubes [1] and in the assay on L6-myotubes [2] was less than 25% each time.

On to `O[C@H](c1cncc(F)c1)C12CCC(COCc3ccc(OC(F)(F)F)cc3)(CC1)N2` [Example 17, (R)-(5-Fluoropyridin-3-yl)(4-(((4-(trifluoromethoxy)benzyl)oxy)-methyl)-7-azabicyclo[2.2.1]heptan-1-yl)methanol], for which the values for the Emax at 10 µM in the assay with L6-myotubes [1] and in the assay with L6-myotubes [2] were 50 to 75% and less than 25%, respectively.

Take `O[C@@H](c1cncc(F)c1)C12CCC(COCc3ccc(OC(F)(F)F)cc3)(CC1)N2` [Example 18, (S)-(5-Fluoropyridin-3-yl)(4-(((4-(trifluoromethoxy)benzyl)oxy)methyl)-7-azabicyclo[2.2.1]heptan-1-yl)methanol]: the Emax at 10 µM in the assay on L6-myotubes [1] and in the assay on L6-myotubes [2] was less than 25% in each case.

Take `O[C@H](c1cccc(F)c1)C12CCC(Cc3ccc(OC(F)(F)F)cc3)(CC1)N2` [Example 19, (R)-(3-Fluorophenyl)(4-(4-(trifluoromethoxy)benzyl)-7-azabicyclo-[2.2.1]heptan-1-yl)methanol]: the Emax at 10 µM in the assay with L6-myotubes [1] and with L6-myotubes [2] was less than 25% each time.

Turning to `O[C@@H](c1cccc(F)c1)C12CCC(Cc3ccc(OC(F)(F)F)cc3)(CC1)N2` [Example 20, (S)-(3-Fluorophenyl)(4-(4-(trifluoromethoxy)benzyl)-7-azabicyclo-[2.2.1]heptan-1-yl)methanol], the Emax at 10 µM in the assay on L6-myotubes [1] and in the assay on L6-myotubes [2] was less than 25% throughout.

For the compound `CS(=O)(=O)N(Cc1ccccc1)c1ccc(CC23CCC([C@H](O)c4cccc(F)c4)(CC2)N3)cc1` [Example 21], the Emax at 10 µM in the assay on L6-myotubes [1] is 25 to 50%; with L6-myotubes [2] it was less than 25%.

Take `CS(=O)(=O)N(Cc1ccccc1)c1ccc(CC23CCC([C@@H](O)c4cccc(F)c4)(CC2)N3)cc1` [Example 22, N-Benzyl-N-(4-((4-((S)-(3-fluorophenyl)(hydroxy)methyl)-7-aza-bicyclo[2.2.1]heptan-1-yl)methyl)phenyl)methanesulfonamide]: the Emax at 10 µM with L6-myotubes [1] is 25 to 50%; with L6-myotubes [2], less than 25%.

For the compound `CS(=O)(=O)N(Cc1ccccc1)c1cccc(CC23CCC([C@H](O)c4cccc(F)c4)(CC2)N3)c1` [Example 23, N-Benzyl-N-(3-((4-((R)-(3-fluorophenyl)(hydroxy)methyl)-7-aza-bicyclo[2.2.1]heptan-1-yl)methyl)phenyl)methanesulfonamide], the Emax at 10 µM in the assay on L6-myotubes [1] was 50 to 75%; in the assay with L6-myotubes [2], less than 25%.

The values are drawn from patent US20250223296A1, “HYDROXYMETHYL AZABICYCLO[2.2.1]HEPTANES AND MEDICAL USES THEREOF” (ATROGI AB, priority 2022, published 2025).
